Data published in ChEMBL document CHEMBL1148602, “Synthesis and biological evaluation of new pentaphyrin macrocycles for photodynamic therapy” (J Med Chem, 2006).
≈ marks a conversion by molar mass, not a printed value. Calls of active or inactive are those of the source. The calls are words filed in the database; no cut-off is given here.

Columns and labels:
Type in all cases: functional, cell-based
K562 [1] = test: Cytotoxicity against human chronic myelogenous leukemia K562 cell line without light irradiation by MTT assay at 3-12 ug/ml
IMR-90 [2] = test: Cytotoxicity against human transformed fibroblast IMR90 E1A cell line without light irradiation by MTT assay at 3-12 ug/ml
K562 [3] = test: Cytotoxicity against human chronic myelogenous leukemia K562 cell line irradiated with white light at the fluence of 15 J/cm2; conditions: K562, light or radiation study
IMR-90 [4] = test: Cytotoxicity against human transformed fibroblast IMR90 E1A cell line irradiated with white light at the fluence of 15 J/cm2; conditions: IMR-90, light or radiation study
PANC-1 [5] = test: Cytotoxicity against human pancreatic adenocarcinomas Panc1 cell line irradiated with white light at the fluence of 15 J/cm2; conditions: PANC-1, light or radiation study
HeLa [6] = test: Cytotoxicity against human cervix adenocarcinomas HeLa cell line irradiated with white light at the fluence of 15 J/cm2; conditions: light or radiation study
K562 [7] = test: Cytotoxicity against human chronic myelogenous leukemia K562 cell line irradiated with white light at the fluence of 30 J/cm2; conditions: K562, light or radiation study
IMR-90 [8] = test: Cytotoxicity against human transformed fibroblast IMR90 E1A cell line irradiated with white light at the fluence of 30 J/cm2; conditions: IMR-90, light or radiation study
PANC-1 [9] = test: Cytotoxicity against human pancreatic adenocarcinomas Panc1 cell line irradiated with white light at the fluence of 30 J/cm2; conditions: PANC-1, light or radiation study
HeLa [10] = test: Cytotoxicity against human cervix adenocarcinomas HeLa cell line irradiated with white light at the fluence of 30 J/cm2; conditions: light or radiation study
IMR-90 [11] = test: Effect on apoptotic fragmentation in IMR90 E1A cells at 3 ug/ml and irradiation at 8 mW/cm2 for 60 min; conditions: Homo sapiens
K562 [12] = test: Effect on apoptotic fragmentation in K562 cells at 3 ug/ml and irradiation at 8 mW/cm2 for 60 min; conditions: Homo sapiens
HeLa [13] = test: Internalization in cytoplasm in HeLa cells at 3 ug/ml for 24 hr by confocal microscopy after propidium iodide staining; conditions: Homo sapiens
K562 [14] = test: Activation of Caspase 3 and 7 in K562 cells at 3 ug/ml and irradiation of 15 J/cm2 for 8 hrs; conditions: Homo sapiens
IMR90 EIA = test: Activation of Caspase 3 and 7 in IMR90 EIA cells at 3 ug/ml and irradiation of 15 J/cm2 for 8 hrs; conditions: Homo sapiens

| Compound | Activity (K562 [1]) | Activity (IMR-90 [2]) | IC50 (K562 [3]) | IC50 (IMR-90 [4]) | IC50 (PANC-1 [5]) | IC50 (HeLa [6]) | IC50 (K562 [7]) | IC50 (IMR-90 [8]) | IC50 (PANC-1 [9]) | IC50 (HeLa [10]) | Activity (IMR-90 [11]) | Activity (K562 [12]) | Activity (HeLa [13]) | Activity (K562 [14]) | Activity (IMR90 EIA) |
| --- | --- | --- | --- | --- | --- | --- | --- | --- | --- | --- | --- | --- | --- | --- | --- |
| CCC1=C(C)C2=NC/1=C\c1[nH]c(c(CC)c1CC)/C=c1\[nH]/c(c(C)c1CC)=C\C1=NC(C=C1)/C(c1ccccc1)=c1/cc/c([nH]1)=C/2 (stereo not given) | Toxic | Toxic | 2 µg/mL (≈ 3.3 µM) | 4 µg/mL (≈ 6.6 µM) | 9.7 µg/mL (≈ 16 µM) | 4.8 µg/mL (≈ 7.92 µM) | 1.5 µg/mL (≈ 2.48 µM) | 2.3 µg/mL (≈ 3.8 µM) | 3.9 µg/mL (≈ 6.44 µM) | 2.6 µg/mL (≈ 4.29 µM) | Active | Active | Active | Active | Active |
| CCC1=C(C)C2=NC/1=C\c1[nH]c(c(CC)c1CC)/C=c1\[nH]/c(c(C)c1CC)=C\c1ccc([nH]1)/C(c1ccccc1)=c1/cc/c([nH]1)=C/2 | Toxic | Toxic | 3.6 µg/mL (≈ 5.94 µM) | 4.2 µg/mL (≈ 6.93 µM) | 9.8 µg/mL (≈ 16.2 µM) | 5.8 µg/mL (≈ 9.57 µM) | 2.9 µg/mL (≈ 4.79 µM) | 3.2 µg/mL (≈ 5.28 µM) | 4.6 µg/mL (≈ 7.59 µM) | 3.8 µg/mL (≈ 6.27 µM) | Active | Active | Active | Active | Active |
